# Test results reported in PMC7321108, “1-Hydroxyanthraquinones Containing Aryl Substituents as Potent and Selective Anticancer Agents” (Molecules, 2020).
# Tests used:
# [1] = system: DU-145 cells; assay: DNA synthesis investigation (BrdU/PI flow cytometry), DU-145; format: cell-based, human; conditions: DU-145, treated at GI50 concentration, 24 h, BrdU 30 min
# Protocol: (§3) Cell cycle analysis was performed by Flow Cytometry using BrdU and PI staining [63]. For this experiment cells were seeded in 6-well plates (30,000 per plate) and incubate for adhesion for 24 h. […] For the next step the BrdU stock was added at a final concentration of 30 µM and cells were incubated for 30 min. Cells were washed with PBS, harvested using trypsine and resuspended at 0.3 mL of PBS. Permeabilization of cell membrane was performed as follows: 0.7 mL of ice-cold 100% EtOH was added into each sample, mixed gently and incubate at 4 °C for 1 h. Cells were pelleted and supernatant was removed completely. Then 0.5 mL of 2 N HCl/0.5% Triton X-100 was added and samples were incubated 30 min at room temperature. Cells were pelleted again, supernatant was removed. The pellet was resuspended in 0.5 mL of 0.1 M sodium tetraborate for 2 min and cells were pelleted again, washed with 150 µL of PBS/1% BSA and resuspended in 50 µM 0.5% Tween 20/1% BSA/PBS. […] After that the samples were resuspended in 0.5 mL of PBS containing 10 mg/mL RNAse A and 20 mg/mL PI. Samples were incubated at room temperature for 30 min and analyzed immediately or store at 4 °C. CytoFLEX flow cytometer (Beckman Coulter) was used for analysis. The results are presented as a percentage of cell population standing in DNA synthesis process.
# [2] = system: SNB-19 cells; assay: Cell cycle analysis by flow cytometry (Hoechst 33342), SNB-19; format: cell-based, human; conditions: SNB-19, treated at GI50 concentration, 24 h
# Protocol: Due to the fact that the implementation of the antitumor potential of the currently existing antitumor agents is carried out by acting on various biological targets, at the next stage we performed the cell cycle analysis and DNA synthesis. Cell cycle analysis of 1-hydroxy-4-phenyl-9,10-anthraquinone 13, 1-hydroxy-4-(2,3-dimethoxyphenyl)-9,10- anthraquinone 16, 1-hydroxy-4-(furan-3-yl)-9,10-anthraquinone 23 and 1-hydroxy- 2-(2,3-dimethoxyphenyl)-9,10-anthraquinone 28 against SNB-19 cells for 24 h produced interesting results. After examining the data for compounds 13 and 16 (Table 3, Figure 4C,D), good number of cells are distributed in S phase, i.e., initiated DNA replication mechanism and also in G0/G1 phase, i.e., initial phase of cell cycle. G1 and G2 are the growth phases in cell cycle analysis, whereas S phase is a synthetic phase wherein DNA replication and DNA synthesis take place. The 2-aryl substituted compound 28 initiated the G0/G1 phase in analogy with doxorubicin and mitomycin. […] Further, compounds play a vital role in controlling the regulation of Sub-G1 and G2/M phases. Some difference in the mechanism of operation of 4-aryl substituted 13,16 and 2-aryl substituted 9,10-anthraquinones 28 has been observed during the progression of cell cycle like: S phase was highly disturbed by 13; G0/G1 phase was highly disturbed by 28. […] This observation can be explained by the influence on the cell repair systems that respond to the intercalation of compounds in DNA. […] Further, mitoxantrone promotes the arrest of S phase of cell cycle.
# (§1) For cell cycle analysis cells were seeded in 6-well plates (30,000 per plate) and incubate for adhesion for 24 h. […] Cells were washed with PBS twice, harvested, pelleted and resuspended in 0.5 mL of PBS. For staining the Hoechst 33342 Ready Flow Reagent (Invitrogen) was used according to the instruction. CytoFLEX flow cytometer (Beckman Coulter) was used for analysis. The results are presented as a percentage of cell population standing in different stages of the cell cycle.
# [3] = system: T98G glioblastoma cells; assay: MTT cytotoxicity assay, T98G; format: cell-based; conditions: Homo sapiens, 72 h incubation, mean ± SEM of three experiments, read-out: Cytotoxicity (GI50) against T98G
# Method in brief: (§2)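 Seed cells, add test compounds dissolved in DMSO, and incubate 72 h at 37 °C in 5% CO2. Add 1% MTT for four hours, then DMSO for 15 min, and read absorbance at 450 nm. Derive GI50 from three independent experiments.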
# [4] = system: SNB-19 glioblastoma cells; assay: MTT cytotoxicity assay, SNB-19; format: cell-based; conditions: Homo sapiens, 72 h incubation, mean ± SEM of three experiments, read-out: Cytotoxicity (GI50) against SNB-19
# Method in brief: as §2
# [5] = system: MDA-MB-231 breast cancer cells; assay: MTT cytotoxicity assay, MDA-MB-231; format: cell-based; conditions: Homo sapiens, 72 h incubation, mean ± SEM of three experiments, read-out: Cytotoxicity (GI50) against MDA-MB-231
# Method in brief: as §2
# [6] = system: MT-4 cells of T-cellular human leucosis; assay: MTT cytotoxicity assay, MT-4; format: cell-based; conditions: MT4, 72 h incubation, mean ± SEM of three experiments, read-out: Cytotoxicity (GI50) against MT-4
# Method in brief: as §2
# [7] = system: U-87MG glioblastoma cells; assay: MTT cytotoxicity assay, U-87MG; format: cell-based; conditions: Homo sapiens, 72 h incubation, mean ± SEM of three experiments, read-out: Cytotoxicity (GI50) against U-87MG
# Method in brief: as §2
# [8] = system: SNB-19 cells; assay: DNA synthesis investigation (BrdU/PI flow cytometry), SNB-19; format: cell-based, human; conditions: SNB-19, treated at GI50 concentration, 24 h, BrdU 30 min
# Protocol: as §3
# [9] = MTT cytotoxicity assay, normal hTERT-immortalized lung fibroblasts; format: cell-based; conditions: human, hTERT-immortalized lung fibroblasts (normal cell line), 72 h incubation, mean ± SEM of three experiments, read-out: Cytotoxicity (GI50) against hTERT Lung Fibroblasts
# Method in brief: as §2
# [10] = system: DU-145 cells; assay: Cell cycle analysis by flow cytometry (Hoechst 33342), DU-145; format: cell-based, human; conditions: DU-145, treated at GI50 concentration, 24 h
# Protocol: We have carried out flow cytometric study of compounds 13, 16 and the isomeric compound 25 (Table 4, Figure 4G,H). Concentrations of 16 and 25 were taken as 5.4 and 14.5 μM, respectively, as per cytotoxic studies (Table 1). After examining the data for 13 (Figure 4G, Table 4), a good number of cells are arrested in Sub-G1, G0/G1 and S phase. Biosynthetic activity is very high during Sub-G1 phase; this is probably achieved by enhancing of apoptosis. The isomeric molecule 25 arrest G0/G1 and S phases, i.e., affecting the DNA synthesis/replication mechanism. Similarly, for 25 a different pattern is observed, i.e., variations at S and G2/M phases were observed, in comparison to the control. […] Some difference in the mechanism of operation of 13 and 25 has been observed during the progression of cell cycle like: Sub-G1 phase was highly disturbed by 13 and S and G0/G1 phases were highly disturbed by 25.
# as §1
# [11] = system: DU-145 prostate cancer cells; assay: MTT cytotoxicity assay, DU-145; format: cell-based, human; conditions: 72 h incubation, mean ± SEM of three experiments, read-out: Cytotoxicity (GI50) against DU-145
# Method in brief: as §2
# [12] = system: LNCAP prostate cancer cells; assay: MTT cytotoxicity assay, LNCAP; format: cell-based, human; conditions: Homo sapiens, LNCaP, 72 h, 72 h incubation, mean ± SEM of three experiments, read-out: Cytotoxicity (GI50) against LNCAP
# Method in brief: as §2
compound,measurement,setting,value
"COc1cccc2c1C(=O)c1c(O)c3c(c(O)c1C2=O)C[C@@](O)(C(=O)CO)C[C@@H]3O[C@H]1C[C@H](N)[C@H](O)[C@H](C)O1 [DOX, Doxorubicin, reference compound]",Population (% Cell Distribution) DNA Synthesis,[1],10.76%
same,Population (% Cell Distribution) G0/G1,[2],49.6%
same,Population (% Cell Distribution) G2/M,[2],19.6%
same,Population (% Cell Distribution) S,[2],23.2%
same,Population (% Cell Distribution) Sub-G1,[2],1.9%
same,Population (% Cell Distribution) Super-G2,[2],5.7%
same,GI50,[3],4.5 ± 0.46 µM
same,GI50,[4],7.62 ± 0.69 µM
same,GI50,[5],7.9 ± 0.51 µM
same,GI50,[6],0.2 ± 0.04 µM
same,GI50,[7],6.11 ± 0.15 µM
same,Population (% Cell Distribution) DNA Synthesis,[8],11.81%
same,GI50 at 72 h,[9],2.2 ± 0.58 µM
same,Population (% Cell Distribution) G0/G1,[10],48.8%
same,Population (% Cell Distribution) G2/M,[10],15.9%
same,Population (% Cell Distribution) S,[10],28.1%
same,Population (% Cell Distribution) Sub-G1,[10],0.3%
same,Population (% Cell Distribution) Super-G2,[10],6.8%
same,GI50,[11],6.61 ± 0.34 µM
same,GI50,[12],2.11 ± 0.4 µM
